From the pKa sets of Baltruschat and Czodrowski (2020)
Where a SMILES comes first, the peptide text is derived from it. [ ]: non-standard residue; d: D form. pGlu = O=C1CC[C@@H](C(=O)O)N1

Conditions: acidic group
Work on OC(c1ccncc1)n1cc[nH+]c1 (stereo not given) yielded a pKa of 7.24. Work on [O-][n+]1cnc(NCc2ccccc2)c2nc[nH]c21 yielded a pKa of 7.27. With OCCN1CCN(CCO)CC1 the pKa was 7.75. O=C(O)C1(C(=O)O)CC1 showed a pKa of 1.92. Work on O=C(O)[C@@H]1CC[C@@H](C(=O)O)S1 yielded a pKa of 3.3. For O=CC(=O)O, the pKa was 1.26. Cc1cc(C2(c3ccc(O)c(C)c3)OS(=O)(=O)c3c(Br)c(Br)c(Br)c(Br)c32)ccc1O showed a pKa of 7.53. O=C(O)[C@H]1C[C@@H]1c1cccc(Cl)c1 gave a pKa of 4.51. Work on O=C(O)/C=C\c1cccc([N+](=O)[O-])c1 yielded a pKa of 3.63. In the case of Nc1ncccc1O, the pKa is reported as 9.5. Work on CC(C#N)C(C)(C)C(=O)O (stereo not given) yielded a pKa of 3.97. With O=[N+]([O-])c1ccc(S(=O)(=O)NCc2ccccc2)cc1 the pKa was 10.1. With Cc1cc(C=O)c(O)c(C=O)c1 the pKa was 6.2. CC(=O)OCC(=N/[O-])/C(C)=N/O showed a pKa of 11.5. Work on Cc1cc(=O)oc2ccc(O)cc12 yielded a pKa of 9.14. Cc1cc(Cl)ccc1C(=O)O showed a pKa of 3.75. Compound CN(C)c1ccc(/C=N/O)cc1 has a pKa of 11.3. Work on O=S(O)CCCCc1ccccc1 yielded a pKa of 2.23. CCSC(C)C(=O)O (stereo not given) gave a pKa of 3.8. CC(=O)c1cc(C(=O)C(C)(C)C)[nH]n1 gave a pKa of 9.7. O=C(O)/C(Cl)=N/O gave a pKa of 1.5. CC(O)CC(=O)O (stereo not given) showed a pKa of 4.5. [NH3+]CC(=O)NCC(=O)NCC(=O)N1CCC[C@H]1C(=O)O showed a pKa of 2.91. CC(C)(/C=C/C(=O)[O-])c1cc([N+](=O)[O-])ccc1O showed a pKa of 7.24. Work on Sc1cccc[nH+]1 yielded a pKa of -1.22. For C[NH+](C)CCCCCCCNC(=O)/C=N/O, the pKa was 8.98. Compound O=C(O)c1cccc[n+]1[O-] has a pKa of 3.54. In the case of O/N=C\c1ccco1, the pKa is reported as 10.8. Cn1c(=O)[nH]c(=O)c2[nH]cnc21 showed a pKa of 8.49. CNC(=O)Oc1ccc2c(c1)[C@@]1(C)CC[NH+](C)[C@H]1N2C showed a pKa of 6.12. Compound O/N=C/c1ccnc2ccccc12 has a pKa of 10.4. Sc1ccc(Cl)c(Cl)c1 gave a pKa of 5.48. Work on O=C(NO)C1CCCCC1 yielded a pKa of 9.87. CCCC[NH2+]CCC(=O)O showed a pKa of 3.57. Compound Oc1cncnc1 has a pKa of 6.78. With Cc1cc(C)c(C(=O)C(=O)O)c(C)c1 the pKa was 1.34. Work on O=C(O)COc1ccc([N+](=O)[O-])cc1 yielded a pKa of 2.89. C[C@H](NC(=O)[C@@H]1CCC(=O)N1)C(=O)O ([pGlu]-Ala-OH) showed a pKa of 3.6. Work on CNc1cccc[n+]1O yielded a pKa of 2.61. With CN(C)c1cc[nH+]c2c(O)cccc12 the pKa was 7.05. CCCCc1c(C)nn(-c2ccccc2)c1O showed a pKa of 11.4. Work on CCN(CC)Cc1cc(C)ccc1O yielded a pKa of 10.8. For O=c1cccc([O-])cc1O, the pKa was 9.52. Work on CC(=O)c1ccc([N+](=O)[O-])cc1 yielded a pKa of 16.6. O=C1CCc2ccc(Cl)cc2C1 showed a pKa of 12.3. Work on CC[NH2+]C(C)C(=O)O (stereo not given) yielded a pKa of 2.22. S=C(Nc1ccc(Cl)c(Cl)c1)c1cccc(Br)c1 showed a pKa of 9.26. With COc1c(C)cccc1C(=O)O the pKa was 3.84. In the case of Cc1cc(O)ccc1O, the pKa is reported as 10.1. Compound Cc1cc(C)c(O)c(C(C)C)c1 has a pKa of 11.2. For Nc1nc(C(F)(F)F)c2[nH]cnc2n1, the pKa was 8.87. Cc1cc(Nc2ccc(O)cc2)c(C(C)C)cc1O showed a pKa of 9.85. Compound CC(=O)CC(=O)C(C)(C)C has a pKa of 9.94. Compound C[C@@H]1CCC[C@H](C(=O)O)C1 has a pKa of 4.88. Compound CC[N+](O)(CC)c1ccccc1 has a pKa of 4.53. Nc1c(O)cccc1O showed a pKa of 9.3. Nc1ccc(O)cc1O gave a pKa of 9.3. In the case of N#CC(=C(O)O)c1ccccc1, the pKa is reported as 0.99.

Same assay, conditions: basic group
Work on CC(C)NNC1CC[NH+](C(C)C)CC1 yielded a pKa of 6.3. CC[NH+](CC)[C@H]1CCC[C@@H]1N(C)C gave a pKa of 5.76. For [O-][n+]1cnc(NCc2ccccc2)c2nc[nH]c21, the pKa was 2.86. CC(C)N(CCC(c1ccccc1)c1ccccn1)C(C)C (stereo not given) gave a pKa of 10.5. For CCC/C=C1\CCCN1C, the pKa was 11.9. CC(C)S(=O)(=O)n1c(N)nc2ccc(/C(=C/C(N)=O)c3cc(F)ccc3F)cc21 showed a pKa of 3.4. Work on CN(C)CCN(C)CCN yielded a pKa of 9.88. C[C@H](O)[C@H]1CC[C@H]2[C@@H]3CC[C@H]4C[C@H](N)CC[C@]4(C)[C@H]3CC[C@]12C showed a pKa of 9.28. In the case of CCCCCNc1ccccc1, the pKa is reported as 5.2. With Nc1ncc2ccccc2n1 the pKa was 4.8. Work on Nc1ccnc([O-])n1 yielded a pKa of 12.2. Nc1cccc2cc([N+](=O)[O-])ccc12 showed a pKa of 3.15. CCC(=O)C1(c2cccc(O)c2)CCN(C)CC1 showed a pKa of 8.67. With CCCCCCCCCCCCCCCCCN the pKa was 10.6. CN1CC[C@]23c4c5ccc(O[C@@H]6O[C@H](C(=O)[O-])[C@@H](O)[C@H](O)[C@H]6O)c4O[C@H]2[C@@H](O)C=C[C@H]3[C@H]1C5 showed a pKa of 8.1. In the case of O=C1Nc2cncnc2N/C1=C1/Nc2ncncc2NC1=O, the pKa is reported as 1. With CC(=O)N(C)c1ccncc1 the pKa was 4.62. Compound Cc1cncc[nH+]1 has a pKa of -4.89. In the case of Cn1c(=O)[nH]c(=O)c2[nH]cnc21, the pKa is reported as 0.78. With CCCN(C)N the pKa was 7.35. O/N=C/c1ccnc2ccccc12 showed a pKa of 4.55. Work on CC(C)CN[C@H](c1ccccc1)[C@H](O)c1ccccc1 yielded a pKa of 11.3. Work on CN(C)c1nc2cc3c(cc2[nH]1)CCCC3 yielded a pKa of 7.65. CC(C=C(c1cccs1)c1cccs1)N(C)C (stereo not given) gave a pKa of 8.95. CCCC1CCCN1C (stereo not given) showed a pKa of 9.78. Compound Cc1cc2cccnc2c2ncccc12 has a pKa of 5.26. For CN1CCN(C)c2cccc3cccc1c23, the pKa was 4.62. In the case of Oc1cncnc1, the pKa is reported as 1.87. Work on CN(C)c1ccc2cc3c(ccc4ccccc43)nc2c1 yielded a pKa of 7.31. c1cc(C2CCCN2)nc(C2CCC[NH2+]2)c1 (stereo not given) gave a pKa of 9.46. For CC(C)N/C=N/c1ccc(-c2c[nH]cn2)cc1, the pKa was 8.88. In the case of O=C1NCCN1, the pKa is reported as 3.09. In the case of Cn1ncc2c(N)nc(Cl)nc21, the pKa is reported as 2.69. With CC1=C(CC(C)NCC(O)c2ccccc2)CCC1(C)C (stereo not given) the pKa was 8.84. Work on Cc1cccc(C(C)c2c[nH]cn2)c1C (stereo not given) yielded a pKa of 7.04. For CC(C)NNC1CC[NH+](C)CC1, the pKa was 6.32. In the case of CN(C)CCC/N=C(\c1ccccc1)c1ccc2ccccc2c1, the pKa is reported as 9.2. In the case of C1CCN(N2CCCC2)C1, the pKa is reported as 7.16. CC(=O)c1ccc(N)cc1 showed a pKa of 2.27. N[C@@H]1CCCC[C@@H]1[NH3+] gave a pKa of 6.35. Compound COC(=O)c1ncccn1 has a pKa of -0.68. COc1nc(N)c2cnn(C)c2n1 gave a pKa of 3.66. With CC(C)N1CCCCC1 the pKa was 11. Cn1cnc2ccccc21 showed a pKa of 5.65. In the case of Nc1ccccc1F, the pKa is reported as 2.96. Work on CCN(CC)Cc1cc(C)ccc1O yielded a pKa of 8.94. In the case of CCCN(CC(C)O)CC(C)O (stereo not given), the pKa is reported as 8.9. Cc1ccc2c(c1)sc(-c1ccc(N(C)C)cc1)[n+]2C showed a pKa of 2.69. With [NH3+]CCc1cnc[nH]1 the pKa was 6.28. CN(CC1CO1)CC1CO1 (stereo not given) showed a pKa of 6.45. For N#CCCNN, the pKa was 5.91. With COc1c(Cl)cc(Cl)c([O-])c1C(=O)NC1CCN(C)CC1 the pKa was 9.12. In the case of Nc1nc(C(F)(F)F)c2[nH]cnc2n1, the pKa is reported as 1.85. For Nc1c(O)cccc1O, the pKa was 5.1. Compound Cn1/c(=N\N)sc2ccccc21 has a pKa of 6.1. In the case of Cc1cc(C)n(Cc2cc(C)n(C)n2)n1, the pKa is reported as 3.39. Cc1ccccc1/C(=N/CCCN(C)C)c1ccccc1 gave a pKa of 9. In the case of Nc1ccc(O)cc1O, the pKa is reported as 5.7. For C[Si](C)(CCN)O[Si](C)(C)CCN, the pKa was 10.7. With c1ccc2nc3ccccc3cc2c1 the pKa was 5.48. With Cc1ccccn1 the pKa was 5.98. Compound Cc1nn(C)c2c1C(c1ccccc1F)=NCC(=O)N2C has a pKa of 4.69. For Cc1c(Cn2ccnc2)sc2ccc(C(=O)[O-])cc12, the pKa was 6.58. In the case of N#Cc1cccnc1, the pKa is reported as 1.48. Compound Cc1ccc(-c2ncc(-c3ccc(Br)cc3)o2)cc1 has a pKa of 0.87. Work on O=C([O-])C(CO)NCc1cc([N+](=O)[O-])ccc1[O-] (stereo not given) yielded a pKa of 9.75. In the case of C(=C\c1ccncc1)/c1ccccc1, the pKa is reported as 5.97.
